# Test results published in patent publication US20060069132A1, “Azolecarboxamide herbicides” (priority 2004, published 2006).
# What was measured:
# bermudagrass = assay: Test C pre-/postemergence herbicide test; type: in vivo, Cynodon dactylon; settings: for Plant response rating, Bermudagrass: preemergence; for Bermudagrass plant response rating: 500 g ai/ha
# Procedure, shortened: (§1)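 Visual ratings on a 0–100 scale (100 = complete control) made versus untreated controls after 12 to 14 greenhouse days. Test chemicals, formulated in surfactant-containing non-phytotoxic solvent, applied preemergence to planted seeds or postemergence to 1- to 4-leaf plants (2 to 18 cm).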
# redroot pigweed = assay: Test A pre-/postemergence herbicide test; type: in vivo, Amaranthus retroflexus
# Procedure, shortened: (§2)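 Visual injury scores on a 0–100 scale (100 = complete control) taken about ten days post-treatment in greenhouse against untreated controls; dash means no result. Treatments: preemergence soil spray and postemergence spray to runoff on one- to two-leaf plants 2 to 10 cm tall, surfactant-containing formulation.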
# goosegrass = assay: Test C pre-/postemergence herbicide test; type: in vivo, Eleusine indica
# Procedure, shortened: as §1
# [1] = tested on: common (oilseed) sunflower; assay: Test C pre-/postemergence herbicide test; type: in vivo, Helianthus annuus; settings: for Plant response rating, Sunflower: preemergence
# Procedure, shortened: as §1
# common ragweed = assay: Test C pre-/postemergence herbicide test; type: in vivo, Ambrosia elatior; design: key to Plant response rating, Ragweed: 0 = no effect, 100 = complete control
# Procedure, shortened: as §1
# giant foxtail = assay: Test C pre-/postemergence herbicide test; type: in vivo, Setaria faberi
# Procedure, shortened: as §1
# woolly cupgrass = assay: Test C pre-/postemergence herbicide test; type: in vivo, Eriochloa villosa
# Procedure, shortened: as §1
# large crabgrass = assay: Test A pre-/postemergence herbicide test; type: in vivo, Digitaria sanguinalis
# Procedure, shortened: as §2
# barnyardgrass = assay: Test A pre-/postemergence herbicide test; type: in vivo, Echinochloa crus-galli
# Procedure, shortened: as §2
# [2] = 62 g ai/ha, scale 0 to 100, 0 no effect, 100 complete control
# [3] = 125 g ai/ha, scale 0 (no effect) to 100 (complete control), visual, 12 to 14 days
# [4] = Preemergence, scale 0 to 100, 0 no effect, 100 complete control
# [5] = Postemergence, 500 g ai/ha, 0 to 100 scale, 0 no effect, 100 complete control
# [6] = Postemergence, 2000 g ai/ha, 0 to 100 scale, 0 no effect, 100 complete control
# [7] = Preemergence, 2000 g ai/ha, visual rating, 0 to 100 scale (0 no effect, 100 complete control)
# [8] = preemergence, 500 g ai/ha, visual injury, 0 to 100 scale (0 no effect, 100 complete control)
# [9] = 62 g ai/ha, preemergence, scale 0 to 100
# [10] = 125 g ai/ha, scale 0 (no effect) to 100 (complete control), visual, 12 to 14 days, preemergence
# [11] = 250 g ai/ha, scale 0-100, preemergence
# [12] = Preemergence, 500 g ai/ha, scale 0 to 100, 0 no effect, 100 complete control
# [13] = 500 g ai/ha, scale 0 to 100 (0 no effect, 100 complete control), visual, 12 to 14 days, preemergence
# [14] = Postemergence, 500 g ai/ha, scale 0 to 100
# [15] = Postemergence, 250 g ai/ha, scale 0 to 100, 0 no effect, 100 complete control
# [16] = postemergence, 125 g ai/ha, scale 0 to 100
# [17] = postemergence, 62 g ai/ha, scale 0 to 100
smiles,measurement,setting,value
CCN(CC)C(=O)c1cccc(NC(=O)c2sc(C(C)(C)C)nc2C)c1 [Compound 199],"Plant response rating, Bermudagrass",bermudagrass; [2],55
same,"Plant response rating, Bermudagrass",bermudagrass; [3],85
same,"Plant response rating, Bermudagrass","bermudagrass; 250 g ai/ha, scale 0-100",100
same,Bermudagrass plant response rating,bermudagrass; [4],100
same,Pigweed plant response rating,redroot pigweed; [5],80
same,"Plant response rating, Pigweed",redroot pigweed; [6],80
same,Pigweed plant response rating,redroot pigweed; [7],100
same,Pigweed plant response rating,redroot pigweed; [8],100
same,"Plant response rating, Goosegrass",goosegrass; [9],5
same,"Plant response rating, Goosegrass",goosegrass; [10],70
same,"Plant response rating, Goosegrass",goosegrass; [11],90
same,Goosegrass plant response rating,goosegrass; [12],95
same,"Plant response rating, Sunflower","[1]; 62 g ai/ha, scale 0 to 100",0
same,"Plant response rating, Sunflower",[1]; [3],0
same,"Plant response rating, Sunflower","[1]; 250 g ai/ha, scale 0-100",0
same,Sunflower plant response rating,[1]; [12],0
same,"Plant response rating, Ragweed",common ragweed; [9],55
same,"Plant response rating, Ragweed",common ragweed; [10],60
same,"Plant response rating, Ragweed",common ragweed; [11],80
same,Ragweed plant response rating,common ragweed; [12],80
same,"Plant response rating, Foxtail, Giant",giant foxtail; [9],0
same,"Plant response rating, Foxtail, Giant",giant foxtail; [10],10
same,"Plant response rating, Foxtail, Giant",giant foxtail; [11],80
same,"Foxtail, Giant plant response rating",giant foxtail; [12],100
same,"Plant response rating, Cupgrass, Woolly",woolly cupgrass; [9],0
same,"Plant response rating, Cupgrass, Woolly",woolly cupgrass; [10],0
same,"Plant response rating, Cupgrass, Woolly",woolly cupgrass; [11],40
same,"Cupgrass, Woolly plant response rating",woolly cupgrass; [12],70
same,"Crabgrass, Large plant response rating",large crabgrass; [5],15
same,"Plant response rating, Crabgrass, Large",large crabgrass; [6],50
same,"Crabgrass, Large plant response rating",large crabgrass; [7],100
same,"Crabgrass, Large plant response rating",large crabgrass; [8],70
same,Barnyardgrass plant response rating,barnyardgrass; [5],10
same,"Plant response rating, Barnyardgrass",barnyardgrass; [6],80
same,Barnyardgrass plant response rating,barnyardgrass; [7],95
same,Barnyardgrass plant response rating,barnyardgrass; [8],55
C=CCNC(=O)c1cccc(NC(=O)c2cc(C(C)(C)C)nn2C)n1 [Compound 318],"Plant response rating, Bermudagrass",bermudagrass; [2],10
same,"Plant response rating, Bermudagrass",bermudagrass; [3],70
same,"Plant response rating, Bermudagrass","bermudagrass; 250 g ai/ha, scale 0-100",90
same,Bermudagrass plant response rating,"bermudagrass; Postemergence, scale 0 to 100",80
same,Bermudagrass plant response rating,bermudagrass; [4],95
same,Pigweed plant response rating,redroot pigweed; [5],95
same,"Plant response rating, Pigweed",redroot pigweed; [6],100
same,Pigweed plant response rating,redroot pigweed; [7],100
same,Pigweed plant response rating,redroot pigweed; [8],75
same,"Plant response rating, Goosegrass",goosegrass; [9],0
same,"Plant response rating, Goosegrass",goosegrass; [10],10
same,"Plant response rating, Goosegrass",goosegrass; [11],80
same,"Plant response rating, Goosegrass",goosegrass; [13],90
same,Goosegrass plant response rating,goosegrass; [14],5
same,"Plant response rating, Goosegrass",goosegrass; [15],5
same,"Plant response rating, Goosegrass",goosegrass; [16],0
same,"Plant response rating, Goosegrass",goosegrass; [17],0
same,"Plant response rating, Sunflower","[1]; 62 g ai/ha, scale 0 to 100",0
same,"Plant response rating, Sunflower","[1]; 250 g ai/ha, scale 0-100",0
same,"Plant response rating, Sunflower","[1]; 500 g ai/ha, scale 0 to 100 (0 no effect, 100 complete control), visual, 12 to 14 days",0
same,"Plant response rating, Ragweed",common ragweed; [9],0
same,"Plant response rating, Ragweed",common ragweed; [11],70
same,"Plant response rating, Ragweed",common ragweed; [13],70
same,Ragweed plant response rating,common ragweed; [14],0
same,"Plant response rating, Ragweed",common ragweed; [15],0
same,"Plant response rating, Ragweed",common ragweed; [16],0
same,"Plant response rating, Ragweed",common ragweed; [17],0
same,"Plant response rating, Foxtail, Giant",giant foxtail; [9],0
same,"Plant response rating, Foxtail, Giant",giant foxtail; [10],10
same,"Plant response rating, Foxtail, Giant",giant foxtail; [11],50
same,"Plant response rating, Foxtail, Giant",giant foxtail; [13],80
same,"Foxtail, Giant plant response rating",giant foxtail; [14],10
same,"Plant response rating, Foxtail, Giant",giant foxtail; [15],5
same,"Plant response rating, Foxtail, Giant",giant foxtail; [16],0
same,"Plant response rating, Foxtail, Giant",giant foxtail; [17],0
same,"Plant response rating, Cupgrass, Woolly",woolly cupgrass; [9],0
same,"Plant response rating, Cupgrass, Woolly",woolly cupgrass; [10],0
same,"Plant response rating, Cupgrass, Woolly",woolly cupgrass; [11],0
same,"Plant response rating, Cupgrass, Woolly",woolly cupgrass; [13],10
same,"Cupgrass, Woolly plant response rating",woolly cupgrass; [14],20
same,"Plant response rating, Cupgrass, Woolly",woolly cupgrass; [15],10
same,"Plant response rating, Cupgrass, Woolly",woolly cupgrass; [16],0
same,"Plant response rating, Cupgrass, Woolly",woolly cupgrass; [17],0
same,"Crabgrass, Large plant response rating",large crabgrass; [5],30
same,"Plant response rating, Crabgrass, Large",large crabgrass; [6],70
same,"Crabgrass, Large plant response rating",large crabgrass; [7],70
same,"Crabgrass, Large plant response rating",large crabgrass; [8],55
same,Barnyardgrass plant response rating,barnyardgrass; [5],65
same,"Plant response rating, Barnyardgrass",barnyardgrass; [6],90
same,Barnyardgrass plant response rating,barnyardgrass; [7],95
same,Barnyardgrass plant response rating,barnyardgrass; [8],65
